Source: patent US7371812B2, “Antiangiogenic peptides” (Children's Medical Center Corporation, priority 2003, dated 2008)

B1: T2C: recombinant His-tagged TIMP-2 domain composed of the three C-terminal disulfide-bonded loops (~8.5 kD), expressed in Pichia pastoris (protein)
chain: CKITRCPMIPCYISSPDECLWMDWVTEKNINGHQAKFFACIKRSDGSCAWYRGAAPPKQEFLDIEDP
modifications: disulfide (positions not given here); also: His tag, disulfide pairing not given here
notes: recombinant His-tagged TIMP-2 domain composed of the three C-terminal disulfide-bonded loops (~8.5 kD), expressed in Pichia pastoris

What was measured:
[1] = tested on: activated type I collagenase; experiment: 14C-Collagen Film Assay of MMP-inhibitory activity; assay type: biochemical; conditions: T2C and EAT2N up to approximately 100-fold the IC50 of T2N
Procedure: MMP-inhibitory activity was assessed using a quantitative ^14C-Collagen Film Assay, as previously described by us (Moses et al., 1990). Briefly, ^14C-labeled collagen was added to 96 well plates and allowed to polymerize. To determine inhibitory activity, wells were treated with a known amount of activated type I collagenase plus test sample or with collagenase alone, and the plates incubated at 37° C. for 2.5 hours to allow for release of ^14C by the enzyme. Supernantants were then analyzed in a Wallac Scintillation Counter, and percent inhibition of collagenolytic activity was calculated. An IC50 was defined as the amount of protein necessary to inhibit the proteolytic activity of collagenase by 50%.

[2] = tested on: Capillary endothelial cells (EC), isolated from bovine adrenal cortex; experiment: bFGF-stimulated capillary EC proliferation assay; assay type: cell-based
Procedure: Capillary endothelial cells (EC), isolated from bovine adrenal cortex, were a kind gift of Dr. Judah Folkman (Children's Hospital, Boston) and were maintained in DMEM (Gibco) supplemented with 10% calf serum (HyClone) and 3 ng/ml bFGF, and grown at 37° C. in 10% CO2. Capillary EC proliferation was measured as previously reported by us (Moses et al., 1990; Moses et al., 1992; O'Reilly et al., 1994; Moses et al., 1999) using a modification of the method of Connolly and coworkers (and verified by cell counting using a Coulter Counter) (Connolly et al., 1986). Briefly, capillary EC were plated on pre-gelatinized 96 well plates at a density of 2,000 cells per well in DMEM supplemented with 5% calf serum and allowed to attach for 24 hours. The next day, cells were treated with fresh media with or without 1 ng/ml bFGF and challenged with the test proteins at various concentrations. All samples were tested in duplicate. Control wells contained cell treated with media alone or media with bFGF. After 72 hours, the media was removed and the cells were lysed in buffer containing Triton X-100 and the phosphatase substrate p-nitrophenyl phosphate. After a two-hour incubation at 37° C., NaOH was added to each well to terminate the reaction and cell density was determined by calorimetric analysis using a SpectraMax 190 multiwell plate reader (Molecular Devices).

[3] = tested on: embryonic angiogenesis in the chick chorioallantoic membrane; experiment: Chick chorioallantoic membrane assay (CAM); assay type: in vivo; conditions: methylcellulose disc, 48 hours
Procedure: The chick CAM assay was conducted as previously reported by us (Moses et al., 1990; Moses et al., 1992; O'Reilly et al., 1994; Moses et al., 1999; Fang et al., 2000) Briefly, three day old chick embryos were removed from their shells and incubated in plastic Petri dishes for three days. On embryonic day 6, samples and controls mixed into methylcellulose discs were applied to the surfaces of developing CAMs, above the dense subectodermal plexus. After 48 hours of incubation, the eggs were examined for vascular reactions under a dissecting scope (60×) and photographed. All determinations were made by 3 independent members of the laboratory, in a double-blinded fashion.

[4] = tested on: bFGF-driven corneal neovascularization; experiment: Mouse corneal pocket assay; assay type: in vivo
Procedure: In vivo inhibition of angiogenesis was also tested using the mouse corneal pocket assay as previously described (O'Reilly et al., 1994; Moses et al., 1999). […] Each animal carried a pellet containing the test sample plus bFGF in one eye, and a control bFGF pellet in the contralateral eye. After six days, angiogenesis was evaluated using a slit lamp microscope, and each eye was photographed. The area of neovascularization for each cornea was calculated from the length of the vessels (VL) invading the cornea as well as the clock hours (CH) covered as described by the formula VL×CH×0.0628.

[5] = tested on: Capillary EC; experiment: Apoptosis assay (TUNEL, DAPI); assay type: cell-based, bovine; conditions: bFGF-stimulated, 6 hours; Loop 6 at IC50 dose, wortmannin 100 mM
Procedure: In situ detection of cell death was determined using terminal deoxynucleotidyl transferase dUTP nick-end labeling (TUNEL) following manufacturer's instructions (In Situ Cell Death Detection Kit, Roche Applied Science, Indianapolis, Ind.). Capillary EC were plated at a density of 10,000 cells per well on pre-gelatinized Lab-Tek Chamber Slides (Nalge Nunc, Naperville, Ill.) in DMEM supplemented with 5% calf serum and allowed to attach for 24 hours. The next day, cells were treated with fresh media supplemented with 1 ng/ml bFGF and challenged with an IC50 dose of Loop 6 or […] wortmannin, a dose previously reported to induce apoptosis of capillary E (Flusberg et al., 2001). Cells stimulated with bFGF alone were also used as controls. All samples were tested in duplicate. After 6 hours, the cells were rinsed with PBS and then fixed in 4% paraformaldehyde for 1 hour at room temperature. Fixed cells were again rinsed with PBS and permeabilised with 0.1% Triton X-100 in 0.1% sodium citrate on ice for 2 minutes. After two more rinses in PBS, the cells were exposed to TUNEL reaction mixture and incubated at 37° C. […] Apoptotic nuclei were detected using a Nikon Eclipse TE300 microscope (Nikon Instruments, Melville, N.Y.).

[6] = tested on: Capillary EC; experiment: Cell cycle analysis by flow cytometry; assay type: cell-based, bovine; conditions: synchronized, bFGF-stimulated, 16 hours; for cells in G1 / cells in G2/M: IC50 dose of Loop 6 or equivalent dose of T2-Tail
Procedure: Capillary EC were plated at a density of 100,000 cells per plate unto pre-gelatinized 60 mm dishes in DMEM supplemented with 5% calf serum and allowed to attach overnight. The next day, the media was replaced with DMEM supplemented with 0.4% calf serum in order to synchronize the cells by serum starvation. After 36 hours, synchronized cells were stimulated with DMEM containing 5% calf serum plus 1 ng/ml bFGF, and then treated with an IC50 dose of Loop 6 or an equivalent dose of the T2-Tail peptide as control. After 16 hours, the cells were rinsed with PBS, trypsinized and collected by centrifugation. Pelleted cells were rinsed again with PBS and resuspended in 1 ml of 80% ethanol in PBS, and stored at −20° C. overnight. The next morning, cells were collected by centrifugation and resuspended in 500 μl of staining solution (0.1% sodium citrate, 100 μg/ml RNAse A, 0.1% Nonidet-P40, 50 μg/ml propidium iodide). After 30 minutes, DNA content of the cells and the percentages of cells in the various stages of the cell cycle were determined using a FACSVantage SE (Becton Dickinson, Franklin Lanes, N.J.). FACS analysis was performed at the Howard Hughes Institute of Medicine FACS Core Facility at Children's Hospital. All samples were tested in at least duplicate. Histograms of representative experiments for each test condition were created using WinMDI 2.8 (The Scripps Research Institute, La Jolla, Calif.).

[7] = tested on: Cyclin D1, Cyclin E, Cyclin A and p27 in capillary EC lysates; experiment: Immunoblot analyses of cell cycle associated proteins; assay type: cell-based, bovine; conditions: IC50 dose, 16 hours, versus bFGF-stimulated controls
Procedure: Western analyses of capillary EC lysates were performed as previously described by us (Moses et al., 1999; Yan et al., 2001). Capillary EC were plated, synchronized and treated with an IC50 dose of Loop 6 as described above for cell cycle analysis. After 16 hours, cells exposed to bFGF alone or bFGF and Loop 6 were rinsed in PBS and lysed directly in the culture dish by addition of 500 μl of lysis buffer (1% SDS in 10 mM Tris-Hcl, pH 7.4). Collected lysates were boiled for 5 minutes, mixed by vortexing and then placed on ice. Samples were repeatedly passed through a 22-gauge syringe needle in order to shear the DNA. The samples were then centrifuged, and the supernatant collected. Protein concentration of the lysates was determined using the MicroBCA method (Pierce, Rockford, Ill.). Equal amounts of protein were loaded unto 12% SDS-PAGE gels under reducing conditions, resolved by electrophoresis and subsequently transferred to nitrocellulose using a TransBlot apparatus (BioRad). […] Labeled proteins were detected using Supersignal West Pico Chemiluminescence Substrate (Pierce).

[8] = tested on: vascular smooth muscle cells; experiment: Vascular smooth muscle cell proliferation (data not shown); assay type: cell-based
[9] = tested on: Capillary EC; experiment: FGF competition assay; assay type: cell-based, bovine; conditions: IC50 dose of Loop 6, increasing concentrations of bFGF
Excerpt: To further map the anti-proliferative activity of TIMP-2 within T2C, three peptides corresponding to various smaller domains of T2C were synthesized, purified and tested for their ability to inhibit bFGF-stimulated capillary EC proliferation in vitro. These domains and are depicted in FIG. 6A. […] Given that Loop 6 inhibits bFGF-driven endothelial cell proliferation, we asked whether Loop 6 could directly compete with bFGF.

Molecule	inhibition of MMP activity [1]	effect on bFGF-stimulated capillary EC proliferation ([2]; 1 ng/ml bFGF, 72 hours)	effect on neovascularization in the CAM [3]	cells in G1 [6] [%]	cells in G2/M [6] [%]	further results
Loop 6: 24 amino acid peptide corresponding to Loop 6 of TIMP-2, sequence ECLWMDWVTEKNINGHQAKFFACI (SEQ ID NO: 1)	neither T2C nor Loop 6 inhibit MMP activity	significantly inhibited capillary EC proliferation	resulted in avascular zones at doses comparable to those tested for T2C	45.6	9.53	suppression of bFGF-stimulated neovascularization ([4]; 3 μg/eye, versus contralateral control eyes): ~80%; induction of apoptosis (apoptotic nuclei) [5]: not an inducer of apoptosis; number of cells in S-phase ([6]; IC50 dose): did not change significantly; level of p27 [7]: significantly increased; levels of Cyclins D1, E or A [7]: No significant differences; proliferation of vascular smooth muscle cells [8]: did not inhibit the proliferation of vascular smooth muscle cells; competition with bFGF [9]: not abrogated by increasing doses of bFGF
T2-Tail: 19 amino acid peptide corresponding to the carboxy-terminal tail of TIMP-2, sequence AWYRGAAPPKQEFLDIEDP (SEQ ID NO: 3) [reference compound]		had no effect	Neither Loop 5 nor the T2-Tail peptides had any significant effect on neovascularization	27.8	34.6	
VIRAK: control peptide of sequence VIRAK (SEQ ID NO: 4), conserved sequence in the N-terminal domain of all TIMPs [reference compound]		no inhibition of capillary EC proliferation				
Loop 5: 10 amino acid peptide corresponding to Loop 5 of TIMP-2, sequence TRCPMIPCYI (SEQ ID NO: 2) [reference compound]		stimulated the proliferation of capillary EC	Neither Loop 5 nor the T2-Tail peptides had any significant effect on neovascularization			
B1	No significant inhibition of MMP activity		decrease in neovascularization			cytotoxicity to capillary EC [2]: no evidence of cytotoxicity; IC50 ([2]; 1 ng/ml bFGF, 72 hours, read-out: IC50 of inhibition of capillary EC proliferation): ~140 nM; lowest dose producing avascular zones [3]: 112 pmol per egg; reduction of bFGF-driven corneal neovascularization ([4]; 5 μg/eye, versus contralateral control eye with only bFGF, six days): 87%
